Test results from patent US20090275099A1 (priority 2004, published 2009).
Like-named read-outs stand apart in the source and are kept apart here.

What was measured:
human OSCP = molecular target: T1, human OSCP (Homo sapiens, UniProt P48047); test: OSCP binding by quenching of intrinsic protein fluorescence
T1 construct: made in house; host or cells: E. coli
Source text: To determine if Bz-423 indeed binds to the OSCP and the affinity of the interaction, human OSCP was overexpressed in E. coli. […] Bz-423 is the only known inhibitor of the ATPase that functions through binding to the OSCP.

F1F0-ATPase [1] = molecular target: F1F0-ATPase (Bos taurus, UniProt P13621+P32876); test: off-rate measurements, recovery of ATP synthesis of SMPs after dilution; format: biochemical, bovine
Protocol: Inhibition of Na,K-ATPases with oligomycin is time-dependent and results from a slow rate of dissociation from the enzyme (0.05 s^−1) (see, e.g., Esmann, M. (1991) Biochim. Biophys. Acta 1064, 31-36; herein incorporated by reference in its entirety). Since time-dependent inhibition can have profound effects on the function of the F1F0-ATPase, the off-rate of Bz-423 and oligomycin during ATP synthesis was examined. […] Inhibited SMP suspensions were diluted into buffer and activity was measured over time. Enzymatic activity of the SMPs incubated with Bz-423 had recovered to 90% of control at 10 s, indicating rapid dissociation (see, FIG. 18). In contrast, the activity of the enzyme incubated with oligomycin was only 54% of the uninhibited activity at 10 s, and increased for several minutes after dilution (see, FIG. 18). The time-dependence of the recovery of activity fit to a single exponential yielding an apparent dissociation rate constant for Bz-423>0.3 s^−1. However, dissociation of oligomycin was complex and a portion of the inhibitor dissociated at least 10-fold slower, consistent with a tight-binding, slow-dissociating inhibitor (see, e.g., Morrison, J. F., and Walsh, C. T. (1988) Adv. Enzymol. Relat. Areas Mol. Biol. 61, 201-301; herein incorporated by reference in its entirety). Presumably, the constraints of a high-affinity inhibitor dissociating from the membrane embedded proton channel presented a significant barrier for dissociation resulting in a slow off-rate.
Off-rate measurements. Rate of inhibition of ATP synthesis was measured as described above with the following changes. A 20 μL aliquot of SMPs (1 mg mL^−1) in synthesis buffer (with 10 mM K2HPO4) was added to each well of a 96-well plate containing 2.5 μL of 100× drug (14 μM Bz-423 and 35 nM oligomycin, final) or DMSO vehicle control. The drug was diluted out by adding 200 μL of synthesis buffer to each well. Substratecoupling mixture (25 μL with 1 mM ADP) was added to each well at the indicated time point and the rate of NADP^+ reduction was monitored over time.

[2] = system: ovarian cells with null p53 (SKOV3); test: antiproliferation, 72 h, 10% FBS; format: cell-based; settings: Homo sapiens, SK-OV-3, SKOV3, 72 h, read-out: ED50 for antiproliferation
Protocol: (§1) Like most 1,4-benzodiazepines, Bz-423 binds strongly to bovine serum albumin (BSA), which reduces the effective concentration of drug free in solution. For example, in tissue culture media containing 10% (v/v) fetal bovine serum (FBS), ca. 99% of the drug is bound to BSA. Therefore, cell culture cytotoxicity assays are conducted in media with 2% FBS to reduce binding to BSA and increase the free [Bz-423]. Under these conditions, the dose response-curve is quite sharp such that there is a limited concentration range at which Bz-423 is only partly effective. Since some benzodiazepines are known to have anti-proliferative properties, the effect of Bz-423 at concentrations <ED50 were carefully analyzed and observed that in addition to inducing apoptosis, Bz-423 prevented cell growth after 3 d in culture. In these low serum conditions, the cytotoxic and anti-proliferative effects overlapped making it difficult to study each effect independently. […] While higher amounts of drug may also block proliferation, it caused apoptosis well before the effects on proliferation could be observed.
(§2) To confirm the decrease in cell number relative to control cells after 3 d of treatment is due to decreased proliferation and not cell death balanced by proliferation, in addition to cell counting, cell divisions were studied. PKH-67 is a fluorescent probe that binds irreversibly to cell membranes and upon cell division is partitioned equally between the daughter cells, making it possible to quantify cell division by flow cytometry. Ramos cells stained with PKH67 and treated with Bz-423 had fewer cell divisions at sub-cytotoxic concentrations which confirmed that the decrease in cell number was due to anti-proliferative affects and not cell death. To determine if Bz-423 induced anti-proliferation was specific to Ramos cells, cell counting and cell cycle experiments were done in other B cell lines and cell lines derived from solid tumors.

[3] = system: malignant B cell line Raji; test: antiproliferation, 72 h, 10% FBS; format: cell-based; settings: Homo sapiens, read-out: ED50 for antiproliferation
Protocol: as §1, §2

[4] = system: neuroblastoma cell line Lan-1; test: antiproliferation, 72 h, 10% FBS; format: cell-based; settings: LAN1, Lan-1, 72 h, read-out: ED50 for antiproliferation
Protocol: as §1, §2

[5] = system: neuroblastoma cell line IMR-32; test: antiproliferation, 72 h, 10% FBS; format: cell-based; settings: Homo sapiens, IMR-32, 72 h, read-out: ED50 for antiproliferation
Protocol: as §1, §2

Ramos cells = test: antiproliferation, 72 h, 10% FBS; format: cell-based; settings: Homo sapiens, read-out: ED50 for antiproliferation
Protocol: as §1, §2

[6] = system: neuroblastoma cell line SHEP-1; test: antiproliferation, 72 h, 10% FBS; format: cell-based; settings: SH-EP1, SHEP-1, 72 h, read-out: ED50 for antiproliferation
Protocol: as §1, §2

[7] = system: Ramos clones transfected to overexpress Bcl-xL; test: antiproliferation, 72 h, 10% FBS; format: cell-based; settings: Homo sapiens, read-out: ED50 for antiproliferation
Protocol: as §1, §2

[8] = system: Ramos clones transfected to overexpress Bcl-2; test: antiproliferation, 72 h, 10% FBS; format: cell-based; settings: Homo sapiens, Bcl-2, 72 h, read-out: ED50 for antiproliferation
Protocol: as §1, §2

[9] = system: malignant B cell line CA46; test: antiproliferation, 72 h, 10% FBS; format: cell-based; settings: Homo sapiens, CA46, 72 h, read-out: ED50 for antiproliferation
Protocol: as §1, §2

[10] = molecular target: mitochondrial F1F0-ATPase (Bos taurus, UniProt P13621+P32876); test: biochemical; parameters: species or system bovine; settings: for Ki: synthesis
F1F0-ATPase [11] = molecular target: F1F0-ATPase (Homo sapiens, UniProt P05496+P48047); test: inhibition of the F1F0-ATPase (potencies stated in the description); format: biochemical
Ramos B cells = test: cell death of Ramos B cells, propidium iodide exclusion by flow cytometry, 24 h; format: cell-based, human; settings: Homo sapiens, Ramos, 24 h; read-out: Cell death EC50 (μM), Ramos cells

T1 sequence (P48047 24-213): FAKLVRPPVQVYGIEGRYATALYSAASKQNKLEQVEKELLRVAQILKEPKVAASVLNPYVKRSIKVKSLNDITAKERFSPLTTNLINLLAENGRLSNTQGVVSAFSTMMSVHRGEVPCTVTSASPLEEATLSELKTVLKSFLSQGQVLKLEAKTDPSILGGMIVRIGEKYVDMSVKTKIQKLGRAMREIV

## CN1C(=O)C(Cc2ccc3ccccc3c2)N=C(c2ccc(O)cc2)c2cc(Cl)ccc21 (stereo not shown) [Bz-423]
Human OSCP
  Kd: 0.2 ± 0.04 µM
F1F0-ATPase [1]; 1.4 μM Bz-423, 3.5 nM oligomycin
  reduction of F1F0-ATPase activity at the concentration produced after dilution: 10%
F1F0-ATPase [1]; 14 μM Bz-423 or 35 nM oligomycin, read-out: ATP synthesis activity relative to that in the absence of inhibitor
  activity at 14 µM: 27%
F1F0-ATPase [1]; at 10 s after dilution
  enzymatic activity recovered after dilution, % of control: 90%
F1F0-ATPase [1]; read-out: dissociation rate from the enzyme-substrate complex
  koff: ~0.2 s⁻¹
F1F0-ATPase [1]; single exponential fit, read-out: apparent dissociation rate constant
  koff: > 0.3 s⁻¹
[2]
  EC50: 18.2 µM
[3]
  EC50: 12.9 µM
[4]
  EC50: 13.7 µM
[5]
  EC50: 18 µM
Ramos cells
  EC50: 10.7 µM
[6]
  EC50: 15.9 µM
[7]
  EC50: 13.7 µM
[8]
  EC50: 11.9 µM
[9]
  EC50: 13.4 µM
[10]; ATPase activity EC50 (μM), Synthesis, bovine SMPs
  EC50: 5.5 µM
[10]; Ki (E), three-dimensional fit, Bz-423
  Ki: 6.9 ± 0.3 µM
[10]; Ki (ES), three-dimensional fit, Bz-423
  Ki: 10 ± 1 µM
[10]; competitive inhibition constant (Ki(E)), fit of dependence of Vmax/Km on Bz-423 concentration
  Ki: 7.2 ± 0.3 µM
[10]; uncompetitive inhibition constant (Ki(ES)), fit of dependence of Vmax on Bz-423 concentration
  Ki: 11 ± 2 µM
F1F0-ATPase [11]
  Ki: ~9 µM
Ramos B cells
  EC50: 6.3 µM
